Measurements taken from US20060199230A1, “Use of prostate specific antigen to predict drug response” (Hybritech Incorporated, priority 2005, published 2006).

Key:
[1] = tested on: total PSA, proPSA, free PSA and BPSA in serum; test: Serum PSA forms at Time 0 and 1 month of dutasteride treatment; drug response = IPSS decrease of 2 or more at 12 months (Example II); type: in vivo, men
Description: (§1) A cohort of serum samples from men greater or equal to 50 years of age with BPH were used. The PSA range was from 1.5 to 10 ng/ml (median 3.2 ng/ml). International Prostate Symptom Score (IPSS) upon entry were 11-32 (moderate to severe, median 18.5). The median Qmax (urine flow rate in cc per second) was 9.3. Men received TRUS for prostate volume at time 0 and then received dutasteride in a blinded fashion at a rate of 0.5 mg per day. Serum was obtained at 0, 1, 3, and 12 months and was assayed for total PSA, proPSA, free PSA and BPSA. IPSS symptom scores were determined at 0, 1 and 12 months. Additional TRUS for prostate volume was performed at 12 months after the start of drug treatment.
The concentrations of total PSA, free PSA, proPSA, and BPSA were examined at Time 0 (pretreatment baseline) and at 1 month after drug treatment. Drug response was defined as men who had improvement (decrease) in their IPSS of equal to 2 or greater after 12 months of treatment. […] The increases in the ratio of BPSA to total PSA and the ratio of BPSA to free PSA were also highly significant.
Another method of determining a cutoff for clinical utility is to calculate the Odds Ratio of a response to drug treatment at 12 months, based on the percentage change in a measured parameter at 1 month. In this case, the odds of responding to the drug (drop of 2 or more in the IPSS at 12 months) increases with increasing ratio of BPSA to proPSA at 1 month. […] With a >250% increase of BPSA to proPSA ratio over baseline at 1 month, there is at least a 2-fold increase in the odds of having a drug response at 12 months. An Odds Ratio of at least 2 is the preferred embodiment of the invention. Using Odds Ratio as a means to set a cutoff for the increase in the ratio of BPSA to proPSA would have a preferred cutoff of 250%.

[2] = tested on: total PSA, proPSA, free PSA and BPSA in serum; test: Serum PSA forms at Time 0 and 1 month of dutasteride treatment; drug response = prostate volume decrease of 10% or more at 12 months (Example I); type: in vivo, men
Description: as §1
Serum from placebo and drug-treated men were tested for levels of PSA forms at Time 0 (pretreatment baseline), and at 1, 3 and 12 months after the start of placebo or drug treatment. […] In this plot, the decrease in prostate volume by 10% or more was used as the definition of drug response.

[3] = Table 3, samples with a decrease of 2 or more in IPSS
[4] = about 1 month, IPSS reduction of 2 or greater at 12 months as drug response
[5] = median after 1 month of drug, 0.5 mg per day, men with improvement in IPSS of 2 or more at 12 months
[6] = median, pretreatment baseline, drug-treated men with improvement in IPSS of 2 or more at 12 months
[7] = about 1 month after drug administration, men with 10% or greater decrease in prostate volume at 12 months
[8] = median after 1 month of drug, 0.5 mg per day, men with decrease of 10% or more in prostate volume at 12 months
[9] = median, pretreatment baseline, drug-treated men with decrease of 10% or more in prostate volume at 12 months

Compound: C[C@]12C=CC(=O)N[C@@H]1CC[C@@H]1[C@@H]2CC[C@]2(C)[C@@H](C(=O)Nc3cc(C(F)(F)F)ccc3C(F)(F)F)CC[C@@H]12 [dutasteride]
- BPSA, median value at 1 month, Drug [1, 3]: 0.091, 0.151 ng/ml
- BPSA/free PSA, median value at 1 month, Drug [1, 3]: 0.228
- BPSA/total PSA, median value at 1 month, Drug [1, 3]: 0.032, 0.046
- Free PSA, median value at 1 month, Drug [1, 3]: 0.62, 0.67 ng/ml
- Free PSA/total PSA, median value at 1 month, Drug [1, 3]: 0.22, 0.21
- Total PSA, median value at 1 month, Drug [1, 3]: 3.00, 3.08 ng/ml
- decrease in proPSA [1, 4]: 41%
- increase in BPSA to proPSA ratio over baseline [1, 4]: 230%
- increase in BPSA/free PSA ratio [1, 4]: 44%
- increase in BPSA/total PSA ratio [1, 4]: 59%
- increase in BPSA ([1]; about 1 month, IPSS reduction of 2 or greater at 12 months as drug response, not significant): 25%
- BPSA, 1 Month [1, 5]: 0.151 ng/mL
- BPSA/free PSA, 1 Month [1, 5]: 0.228
- BPSA/proPSA, 1 Month [1, 5]: 1.32
- BPSA/total PSA, 1 Month [1, 5]: 0.046
- Free PSA, 1 Month [1, 5]: 0.67 ng/mL
- Free PSA/total PSA, 1 Month [1, 5]: 0.21
- Total PSA, 1 Month [1, 5]: 3.14 ng/mL
- proPSA, 1 Month [1, 5]: 0.103 ng/mL
- BPSA, Time 0 [1, 6]: 0.120 ng/mL
- BPSA/free PSA, Time 0 [1, 6]: 0.158
- BPSA/proPSA, Time 0 [1, 6]: 0.584
- BPSA/total PSA, Time 0 [1, 6]: 0.029
- Free PSA, Time 0 [1, 6]: 0.77 ng/mL
- Free PSA/total PSA, Time 0 [1, 6]: 0.19
- Total PSA, Time 0 [1, 6]: 3.68 ng/mL
- proPSA, Time 0 [1, 6]: 0.253 ng/mL
- difference in any PSA-related parameter, Time 0 vs 1 month, drug non-responders ([1]; men with IPSS improvement of less than 2): None of the placebo samples, or the men with IPSS improvement of less than 2 (drug non-responders), showed statistically a significant difference
- total PSA and free PSA levels at 3 months ([2]; 3 months of drug treatment): the levels decrease at 3 months
- decrease in proPSA [2, 7]: 48%
- increase in BPSA [2, 7]: 86%
- increase of the ratio of BPSA to PSA [2, 7]: 78%
- increase of the ratio of BPSA to free PSA [2, 7]: 52%
- increase of the ratio of BPSA to proPSA over the baseline ratio [2, 7]: 450%
- change in total PSA, free PSA, or the ratio of free to total PSA at 1 month ([2]; drug responders: decrease in prostate volume by 10% or more after 12 months): no significant change
- change in BPSA at 1 month in drug non-responders ([2]; drug-treated men with less than 10% decrease in prostate volume at 12 months): no significant increase
- BPSA, 1 Month [2, 8]: 0.186 ng/mL
- BPSA/free PSA, 1 Month [2, 8]: 0.230
- BPSA/proPSA, 1 Month [2, 8]: 2.26
- BPSA/total PSA, 1 Month [2, 8]: 0.050
- Free PSA, 1 Month [2, 8]: 0.76 ng/mL
- Free PSA/total PSA, 1 Month [2, 8]: 0.214
- Total PSA, 1 Month [2, 8]: 3.14 ng/mL
- proPSA, 1 Month [2, 8]: 0.097 ng/mL
- BPSA, Time 0 [2, 9]: 0.100 ng/mL
- BPSA/free PSA, Time 0 [2, 9]: 0.151
- BPSA/proPSA, Time 0 [2, 9]: 0.499
- BPSA/total PSA, Time 0 [2, 9]: 0.028
- Free PSA, Time 0 [2, 9]: 0.70 ng/mL
- Free PSA/total PSA, Time 0 [2, 9]: 0.204
- Total PSA, Time 0 [2, 9]: 3.02 ng/mL
- proPSA, Time 0 [2, 9]: 0.204 ng/mL
- BPSA level at three months vs baseline ([2]; three months after the start of drug administration, FIG. 1): decline below the baseline level
